Measurements from PubChem BioAssay (NCI).
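In this assay, cells in 96-well plates receive the compound at five concentrations for 48 hours. Endpoints are linearly interpolated between the surrounding concentrations. At the GI50, growth is halved. Definition used: TGI = concentration required for complete inhibition of growth.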

What was measured:
Assay in all cases: growth of human tumour cells (NCI), 48 h
[1] = tested on: CAKI-1 renal
[2] = tested on: DU-145 prostate
[3] = tested on: HL-60(TB) leukemia
[4] = tested on: K-562 leukemia
[5] = tested on: MCF7 breast
[6] = tested on: NCI-H23 lung
[7] = tested on: RPMI-8226 leukemia
[8] = tested on: SK-MEL-2 melanoma
[9] = tested on: SNB-19 CNS
[10] = tested on: UACC-62 melanoma

Structure (SMILES) | TGI [1] | TGI [2] | TGI [3] | TGI [4] | TGI [5] | TGI [6] | TGI [7] | TGI [8] | TGI [9] | TGI [10] | GI50 [1] | GI50 [2] | GI50 [3] | GI50 [4] | GI50 [5] | GI50 [6] | GI50 [7] | GI50 [8] | GI50 [9] | GI50 [10]
c1cnc(N2CCN(Cc3c[nH]c4ccccc34)CC2)nc1 | > 100 µM | 94.2 µM | > 100 µM | > 100 µM | 53.7 µM | > 100 µM | 63.7 µM | 31.4 µM | > 100 µM | > 100 µM |  |  |  |  |  |  |  |  |  | 
COC(OC)[C@@H]1OC[C@@H](O)[C@@H]1n1cnc2c(N)ncnc21 | > 100 µM | > 100 µM |  | > 100 µM | > 100 µM | > 100 µM | > 100 µM | > 100 µM |  | > 100 µM |  |  |  |  |  |  |  |  |  | 
Fc1cccc(F)c1C1SCc2nc3ccc(Cl)cc3n21 (stereo not drawn) | > 100 µM | > 100 µM | > 100 µM | > 100 µM | > 100 µM | > 100 µM | > 100 µM | > 100 µM | > 100 µM | > 100 µM |  |  |  |  |  |  |  |  |  | 
O=C1C(CN2CCOCC2)CCCC1CN1CCOCC1 (stereo not drawn) | 1.57 µM | 31.1 µM | 1.78 µM | 6.84 µM | 1.57 µM | 16.9 µM | 2.34 µM | 16.3 µM | 45.7 µM | 14.5 µM |  |  |  |  |  |  |  |  |  | 
CC1(C)CC(=O)C2=C(C1)OC1=C(CC(C)(C)CC1=O)C2c1ccccc1[N+](=O)[O-] (stereo not drawn) | > 100 µM | > 100 µM | > 100 µM | > 100 µM |  | > 100 µM | > 100 µM | > 100 µM | > 100 µM | > 100 µM |  |  |  |  |  |  |  |  |  | 
O=C(CCc1ccccc1)On1c(-c2ccccc2)nc2ccccc2c1=S | > 100 µM | > 100 µM | > 100 µM | > 100 µM | > 100 µM | 28 µM | > 100 µM | 37.5 µM | > 100 µM | 36.9 µM |  |  |  |  |  |  |  |  |  | 
Clc1ccc(OCc2nn3c(CCc4nnc5sc(COc6ccc(Cl)cc6)nn45)nnc3s2)cc1 | 12.8 µM | 44.2 µM | 72 µM | > 100 µM | 92.8 µM | 72.1 µM | > 100 µM | 87.8 µM |  |  |  |  |  |  |  |  |  |  |  | 
Oc1[nH]c2ccccc2c1/C=c1/cc2c(c(-c3ccc(F)cc3)n1)=Nc1ccccc1-2 | 5.05 µM | 2.03 µM | 0.994 µM | 3.55 µM | 2.57 µM | 3.11 µM | 2.03 µM | 1.34 µM | 32.6 µM |  | 1.29 µM | 0.422 µM | 0.282 µM | 0.435 µM | 0.817 µM | 1.16 µM | 0.406 µM | 0.327 µM | 1.43 µM | 
COc1cc(-c2ccccc2N)c2cccnc2c1OC | 10.2 µM | 10.5 µM | 16.5 µM | 20.5 µM | 18.3 µM | 19.6 µM | 14.8 µM | 26.5 µM | 18.6 µM | 24.2 µM |  |  |  |  |  |  |  |  |  | 
CCOC(=O)C1=C(C)N(c2ccc(OC)cc2)C2(O)C=CC(=O)C3=C(O)c4ccccc4C(=O)C312 (stereo not drawn) | 26.5 µM | 28.4 µM | 21.6 µM | 39.5 µM | 19.2 µM | 37.4 µM | 10.9 µM | 31 µM | 41.1 µM | 26.4 µM |  |  |  |  |  |  |  |  |  | 
C[Si](C)(c1ccccc1)[C@H]1CCCC=C1CCNC1c2ccccc2CCc2ccccc21 | > 100 µM | > 100 µM |  | > 100 µM | > 100 µM | > 100 µM | > 100 µM | > 100 µM | > 100 µM | > 100 µM |  |  |  |  |  |  |  |  |  | 
O=C1c2cn[nH]c2C(c2ccccc2)N1c1ccccc1 (stereo not drawn) | > 10 µM | > 10 µM | > 10 µM |  | > 10 µM | > 10 µM | > 10 µM | > 10 µM | > 10 µM | > 10 µM |  |  |  |  |  |  |  |  |  | 
O=c1cnn(CCOCP(=O)(O)O)c(=O)[nH]1 | > 100 µM | > 100 µM |  | > 100 µM | > 100 µM | > 100 µM | > 100 µM | > 100 µM | > 100 µM |  |  |  |  |  |  |  |  |  |  | 
CCCC(CCN)(CCN)[N+](=O)[O-] | > 100 µM | > 100 µM | > 100 µM | > 100 µM |  | > 100 µM | > 100 µM | > 100 µM | > 100 µM | > 100 µM |  |  |  |  |  |  |  |  |  | 
COc1ccc(C(C2=C(O)COC2=O)c2cc3c(cc2O)OCO3)cc1OC (stereo not drawn) | > 100 µM | > 100 µM | > 100 µM | > 100 µM | > 100 µM |  | > 100 µM | > 100 µM | > 100 µM | > 100 µM |  |  |  |  |  |  |  |  |  | 
Cc1cc(=O)[nH]c(NN2C(Cl)C(=O)C2c2cccc(Cl)c2)n1 (stereo not drawn) |  |  | 40.4 µM | 65.8 µM |  | 58.2 µM | 34.8 µM | 35.8 µM | 92.6 µM | 87.2 µM |  |  |  |  |  |  |  |  |  | 
CC(=O)N1CCn2c1nc1cc(Cl)ccc12 | > 100 µM | > 100 µM | > 100 µM | > 100 µM | > 100 µM |  |  | 92.4 µM | > 100 µM | > 100 µM |  |  |  |  |  |  |  |  |  | 
COc1ccc2c(OCc3nnc4ccc(-c5ccccc5)nn34)ccnc2c1 | > 100 µM | > 100 µM | > 100 µM | > 100 µM |  | > 100 µM | > 100 µM | > 100 µM | > 100 µM | > 100 µM | > 100 µM | > 100 µM | > 100 µM | > 100 µM |  | > 100 µM | > 100 µM | > 91.1 µM | > 100 µM | > 100 µM
CCOC(=O)C1=COC(C)(CCc2ccccc2)CC1=O (stereo not drawn) | > 100 µM | > 100 µM |  | > 100 µM | > 100 µM | > 100 µM | > 100 µM | > 100 µM | > 100 µM | > 100 µM |  |  |  |  |  |  |  |  |  | 
CCN(CC)c1ccc2cc(C(=O)Nc3ccccn3)c(=N)oc2c1 | > 100 µM | > 100 µM | > 100 µM | > 100 µM |  | > 100 µM | > 100 µM | 95.7 µM | 76.2 µM | > 100 µM |  |  |  |  |  |  |  |  |  | 
